Reference: patent US20260014180A1, “BIOACTIVES AND THEIR USES” (AREPA IP LIMITED, priority 2022, published 2026)

Legend:
MAO-B = molecular target: T1, MAO-B (Sus scrofa, UniProt Q6PLK3); assay: S9 liver fraction kynuramine/4HQ LCMS assay, dilution series (Examples 5 and 6); assay type: biochemical; details: read-out: 50% inhibition concentration (equivalent); porcine S9 fraction, kynuramine, 1 hr 37 C
T1 sequence (Q6PLK3 2-520): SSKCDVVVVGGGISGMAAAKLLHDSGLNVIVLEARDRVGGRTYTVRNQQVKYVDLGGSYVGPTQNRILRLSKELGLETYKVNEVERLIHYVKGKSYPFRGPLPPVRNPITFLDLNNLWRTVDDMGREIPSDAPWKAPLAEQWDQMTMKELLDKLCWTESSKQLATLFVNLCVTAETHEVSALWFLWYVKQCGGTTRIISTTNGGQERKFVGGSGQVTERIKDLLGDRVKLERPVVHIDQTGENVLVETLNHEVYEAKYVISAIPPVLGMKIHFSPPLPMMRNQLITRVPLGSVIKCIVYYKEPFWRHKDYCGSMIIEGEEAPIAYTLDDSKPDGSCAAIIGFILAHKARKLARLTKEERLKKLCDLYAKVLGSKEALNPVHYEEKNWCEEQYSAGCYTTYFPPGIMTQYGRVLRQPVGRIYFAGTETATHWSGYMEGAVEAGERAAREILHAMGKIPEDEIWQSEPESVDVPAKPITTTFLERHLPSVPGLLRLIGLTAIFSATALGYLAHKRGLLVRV
Protocol: We used a porcine S9 liver microsome fraction as the source of the MAO-A and MAO-B enzymes.
The S9 porcine fraction was mixed with a specific MAO substrate (kynuramine) and mixed with the test sample and buffer. After 1 hr at 37° C. the reaction was halted by cooling and addition of 2N NaOH and acetonitrile. The centrifuged sample was then analysed using LCMS and the level of 4-quinolol (4HQ) product measured.
The S9 liver microsome fraction containing the crude enzyme mix was from a frozen bulk sample derived from porcine liver.
Samples were prepared in a 6-well plate (deep well format with 1.1 ml strip tubes). The assay was performed by diluting the crude S9 fraction with buffer (PBS, PH 7.4, diluted 1 in 5, 150 μl) and adding the test sample dissolved in buffer (75 ul). An aliquot of kynuramine was added (10 μl of 1 mg/ml) and the plate was placed in a 37 C water bath for 1 hr. The plate was cooled in ice water before addition of 20 μl 2N NaOH followed by 250 μl acetonitrile. The individual strip tubes were centrifuged, and samples taken from each for LCMS analysis.
The LCMS analysis was performed using a Cyano HPLC column eluted with 0.1% formic in water and acetonitrile. The LC run was isocratic mode (40% Acetonitrile) and the relative levels of 4 hydroxy quinoline (4HQ) and kynuramine determined from peak areas. […] Kynuramine is converted to 4HQ by the MAO-B enzyme. […]

[1] = human, in vivo
Protocol: Subjective feeling questionnaires and venous blood samples were collected at various timepoints over 8 h. […] Participants and trial coordinators were masked as to which intervention drink participants consumed. Before each trial day, participants excluded foods and supplements high in polyphenol compounds from their diet, for 24 h. They fasted for at least 10 h before consuming an Almond with Vanilla One Square Meal Bar® (Cookie Time Ltd) for breakfast, 2 h before the start of the trial. Participants arrived at the PFR Clinical Facility, where they were made comfortable. After 5 min at rest, they completed visual analogue scale (VAS) subjective feelings questionnaires and then donated a venous blood sample. After which, they were served their intervention beverage and were instructed to consume it as quickly as possible. […]
The plasma samples (350 μL) were spiked with malvidin 3-O-galactoside and further acidified with phosphoric acid prior to clean up on a SOLAμ™ Solid Phase Extraction plate. […] Quantifications of individual and total anthocyanins were performed using the internal standard ratio method using MultiQuant software, and all results are reported as cyanidin 3-O-glucoside equivalents. Quantification of sarmentosin was performed using an external reference standard supplied by Stephen Bloor (Callaghan Institute).

[2] = in vivo; cited from earlier work
MAO-B in platelets = molecular target: T2, MAO-B in platelets (Homo sapiens, UniProt P27338); details: 100 mg dose, cited from earlier work
T2 construct: host or cells: platelets
T2 sequence (P27338 1-520): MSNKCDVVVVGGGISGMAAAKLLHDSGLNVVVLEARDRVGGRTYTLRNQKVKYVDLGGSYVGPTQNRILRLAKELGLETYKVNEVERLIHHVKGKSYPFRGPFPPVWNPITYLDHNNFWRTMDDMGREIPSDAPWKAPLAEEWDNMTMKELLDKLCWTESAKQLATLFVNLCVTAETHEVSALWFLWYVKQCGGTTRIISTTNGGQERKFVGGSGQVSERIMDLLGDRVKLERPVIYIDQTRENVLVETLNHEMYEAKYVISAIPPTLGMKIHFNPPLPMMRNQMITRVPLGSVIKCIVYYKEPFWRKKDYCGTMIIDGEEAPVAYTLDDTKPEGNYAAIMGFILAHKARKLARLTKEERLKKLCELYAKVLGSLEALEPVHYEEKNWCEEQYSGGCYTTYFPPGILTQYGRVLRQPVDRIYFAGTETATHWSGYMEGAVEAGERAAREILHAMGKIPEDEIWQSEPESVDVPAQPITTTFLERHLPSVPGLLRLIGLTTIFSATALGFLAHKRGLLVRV

MAO-A = molecular target: T3, MAO-A (Homo sapiens, UniProt P21397); details: in vivo; cited from earlier work
T3 construct: purchased Sigma-Aldrich MAK295/296
T3 sequence (P21397 1-527): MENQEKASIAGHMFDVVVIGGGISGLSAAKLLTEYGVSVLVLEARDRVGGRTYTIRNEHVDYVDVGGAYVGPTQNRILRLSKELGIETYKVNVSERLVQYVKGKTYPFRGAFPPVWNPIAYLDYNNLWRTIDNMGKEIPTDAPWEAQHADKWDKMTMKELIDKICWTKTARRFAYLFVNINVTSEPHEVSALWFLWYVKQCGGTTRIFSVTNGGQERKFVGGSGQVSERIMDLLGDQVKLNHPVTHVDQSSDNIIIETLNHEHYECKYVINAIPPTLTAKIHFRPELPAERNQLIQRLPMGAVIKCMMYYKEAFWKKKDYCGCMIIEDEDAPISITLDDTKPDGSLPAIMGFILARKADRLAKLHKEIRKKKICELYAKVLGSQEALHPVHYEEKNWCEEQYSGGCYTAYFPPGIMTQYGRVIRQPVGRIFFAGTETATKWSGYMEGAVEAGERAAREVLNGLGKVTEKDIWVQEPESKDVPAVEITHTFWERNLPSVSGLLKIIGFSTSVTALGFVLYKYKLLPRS

MAO = details: cited from earlier work

N#C/C(=C\CO[C@@H]1O[C@H](CO)[C@@H](O)[C@H](O)[C@H]1O)CO [sarmentosin, 4-(beta-D-glucopyranosyloxy)-2-(hydroxymethyl-2-butenenitrile)]
IC50 (MAO-B): ~1.45 µM
time of peak concentrations of sarmentosin in plasma [1]: 120 min

O=C(NCCN1CCOCC1)c1ccc(Cl)cc1 [Moclobemide]
elimination half-life [2]: 1 to 3 h
time to reach peak (plasma) concentrations [2]: approximately 1 hours

NCCNC(=O)c1ccc(Cl)cn1 [lazabemide]
inhibition of MAO-B in platelets (MAO-B in platelets; 30 min post dose): > 90%
time at which maximal inhibition subsides (MAO-B in platelets; post dose): 16 h
time of full restoration of enzyme activity (MAO-B in platelets; post dose): 48 h

Cc1cccc(N2CC(CO)OC2=O)c1 (stereo not drawn) [toloxatone]
duration of MAO-A inhibition (MAO-A): only six hours

O=c1c(O)c(-c2ccc(O)c(O)c2)oc2cc(O)cc(O)c12 [quercetin]
MAO inhibitory activity by HPLC method (MAO): not active
